One block for each compound: values may come before it.
Tested on: 624824-186-R-J2-PDC multicell spheroids, viability
Assay: Anticancer human tumor 624824-186-R-J2-PDC patient-derived colon adenocarcinoma cell line growth inhibition [PI3K]
Details: for viability, T/C: stronger effect = lower value
Summary of the method: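 Targeted small molecules plus PI3K inhibitors, half-log dose series from Cmax (default top 10 microM), were applied to heterotypic spheroids of cancer cells with HUVEC and MSCs. Viability indicated growth inhibition.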

[1] = curve of first compound, second compound 0.0316 µM
[2] = curve of first compound, second compound 0.1 µM
[3] = curve of first compound, second compound 0.316 µM
[4] = curve of first compound, second compound 1 µM
[5] = curve of first compound, second compound 3.16 µM
[6] = curve of first compound, second compound 10 µM
[7] = second compound 0.0316 µM, first compound 0.00316 µM
[8] = second compound 0.0316 µM, first compound 0.01 µM
[9] = second compound 0.0316 µM, first compound 0.0316 µM
[10] = second compound 0.0316 µM, first compound 0.1 µM
[11] = second compound 0.1 µM, first compound 0.00316 µM
[12] = second compound 0.1 µM, first compound 0.01 µM
[13] = second compound 0.1 µM, first compound 0.0316 µM
[14] = second compound 0.1 µM, first compound 0.1 µM
[15] = second compound 0.316 µM, first compound 0.00316 µM
[16] = second compound 0.316 µM, first compound 0.01 µM
[17] = second compound 0.316 µM, first compound 0.0316 µM
[18] = second compound 0.316 µM, first compound 0.1 µM
[19] = second compound 1 µM, first compound 0.00316 µM
[20] = second compound 1 µM, first compound 0.01 µM
[21] = second compound 1 µM, first compound 0.0316 µM
[22] = second compound 1 µM, first compound 0.1 µM
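Further: spheroids exposed to agents for 7 days before viability read.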
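Wherever viability, T/C is given: 100% = DMSO vehicle treated spheroids.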

IC50 [1]: > 3000 nM
IC50 [2]: > 3000 nM
IC50 [3]: > 3000 nM
IC50 [4]: > 3000 nM
IC50 [5]: > 3000 nM
IC50 [6]: > 3000 nM
SMILES: Cn1cnc2c(F)c(Nc3ccc(Br)cc3Cl)c(C(=O)NOCCO)cc21 + CC(Nc1ncnc2nc[nH]c12)c1cc2cccc(Cl)c2c(=O)n1-c1ccccc1
viability, T/C (second compound 0.0316 µM, first compound 0.00949 µM): 73.3%
viability, T/C (second compound 0.0316 µM, first compound 0.03 µM): 89.5%
viability, T/C (second compound 0.0316 µM, first compound 0.0949 µM): 69.2%
viability, T/C (second compound 0.0316 µM, first compound 0.3 µM): 63.5%
viability, T/C (second compound 0.0316 µM, first compound 0.949 µM): 68%
viability, T/C (second compound 0.0316 µM, first compound 3 µM): 60.6%
viability, T/C (second compound 0.1 µM, first compound 0.00949 µM): 79.8%
viability, T/C (second compound 0.1 µM, first compound 0.03 µM): 62.7%
viability, T/C (second compound 0.1 µM, first compound 0.0949 µM): 70.8%
viability, T/C (second compound 0.1 µM, first compound 0.3 µM): 55.8%
viability, T/C (second compound 0.1 µM, first compound 0.949 µM): 64.2%
viability, T/C (second compound 0.1 µM, first compound 3 µM): 62.1%
viability, T/C (second compound 0.316 µM, first compound 0.00949 µM): 86.9%
viability, T/C (second compound 0.316 µM, first compound 0.03 µM): 64.5%
viability, T/C (second compound 0.316 µM, first compound 0.0949 µM): 58.6%
viability, T/C (second compound 0.316 µM, first compound 0.3 µM): 59.5%
viability, T/C (second compound 0.316 µM, first compound 0.949 µM): 60.5%
viability, T/C (second compound 0.316 µM, first compound 3 µM): 61.2%
viability, T/C (second compound 1 µM, first compound 0.00949 µM): 75.2%
viability, T/C (second compound 1 µM, first compound 0.03 µM): 75.3%
viability, T/C (second compound 1 µM, first compound 0.0949 µM): 65.1%
viability, T/C (second compound 1 µM, first compound 0.3 µM): 67%
viability, T/C (second compound 1 µM, first compound 0.949 µM): 58.5%
viability, T/C (second compound 1 µM, first compound 3 µM): 53.5%
viability, T/C (second compound 3.16 µM, first compound 0.00949 µM): 78.2%
viability, T/C (second compound 3.16 µM, first compound 0.03 µM): 74.7%
viability, T/C (second compound 3.16 µM, first compound 0.0949 µM): 60.6%
viability, T/C (second compound 3.16 µM, first compound 0.3 µM): 59.6%
viability, T/C (second compound 3.16 µM, first compound 0.949 µM): 56.2%
viability, T/C (second compound 3.16 µM, first compound 3 µM): 50.6%
viability, T/C (second compound 10 µM, first compound 0.00949 µM): 72.7%
viability, T/C (second compound 10 µM, first compound 0.03 µM): 71.8%
viability, T/C (second compound 10 µM, first compound 0.0949 µM): 67.4%
viability, T/C (second compound 10 µM, first compound 0.3 µM): 60.7%
viability, T/C (second compound 10 µM, first compound 0.949 µM): 57.5%
viability, T/C (second compound 10 µM, first compound 3 µM): 51.2%

IC50 [1]: > 100 nM
IC50 [2]: > 100 nM
IC50 [3]: > 100 nM
IC50 [4]: > 100 nM
IC50 [5]: > 100 nM
IC50 [6]: > 100 nM
SMILES: Cn1ncnc1[C@H]1c2n[nH]c(=O)c3cc(F)cc(c23)N[C@@H]1c1ccc(F)cc1 + CC(Nc1ncnc2nc[nH]c12)c1cc2cccc(Cl)c2c(=O)n1-c1ccccc1
viability, T/C (second compound 0.0316 µM, first compound 0.000316 µM): 82.5%
viability, T/C (second compound 0.0316 µM, first compound 0.001 µM): 85.3%
viability, T/C [7]: 87.6%
viability, T/C [8]: 89%
viability, T/C [9]: 75.7%
viability, T/C [10]: 86%
viability, T/C (second compound 0.1 µM, first compound 0.000316 µM): 94.6%
viability, T/C (second compound 0.1 µM, first compound 0.001 µM): 85%
viability, T/C [11]: 89.5%
viability, T/C [12]: 94.1%
viability, T/C [13]: 82.8%
viability, T/C [14]: 103%
viability, T/C (second compound 0.316 µM, first compound 0.000316 µM): 115%
viability, T/C (second compound 0.316 µM, first compound 0.001 µM): 102%
viability, T/C [15]: 96.5%
viability, T/C [16]: 87.5%
viability, T/C [17]: 110%
viability, T/C [18]: 86.2%
viability, T/C (second compound 1 µM, first compound 0.000316 µM): 72.6%
viability, T/C (second compound 1 µM, first compound 0.001 µM): 90.8%
viability, T/C [19]: 81.7%
viability, T/C [20]: 89.4%
viability, T/C [21]: 81.4%
viability, T/C [22]: 97.8%
viability, T/C (second compound 3.16 µM, first compound 0.000316 µM): 91.1%
viability, T/C (second compound 3.16 µM, first compound 0.001 µM): 94%
viability, T/C (second compound 3.16 µM, first compound 0.00316 µM): 94.2%
viability, T/C (second compound 3.16 µM, first compound 0.01 µM): 92.1%
viability, T/C (second compound 3.16 µM, first compound 0.0316 µM): 83.5%
viability, T/C (second compound 3.16 µM, first compound 0.1 µM): 78.1%
viability, T/C (second compound 10 µM, first compound 0.000316 µM): 88.5%
viability, T/C (second compound 10 µM, first compound 0.001 µM): 85.6%
viability, T/C (second compound 10 µM, first compound 0.00316 µM): 106%
viability, T/C (second compound 10 µM, first compound 0.01 µM): 106%
viability, T/C (second compound 10 µM, first compound 0.0316 µM): 100%
viability, T/C (second compound 10 µM, first compound 0.1 µM): 88.4%

IC50 (compound alone, run of 06/12/2023): > 1000 nM
SMILES: CC(Nc1ccc2c(c1)OCCn1cc(N3C(=O)OCC3C(F)F)nc1-2)C(N)=O (configuration not stated)
viability, T/C (compound 0.01 µM): 95% [middle of 8 runs]
viability, T/C (compound 0.0316 µM): 84.8% [middle of 8 runs]
viability, T/C (compound 0.1 µM): 90.3% [middle of 8 runs]
viability, T/C (compound 0.316 µM): 89.7% [middle of 8 runs]
viability, T/C (compound 1 µM): 95.2% [middle of 8 runs]

IC50 (curve of first compound, second compound 0.00316 µM): > 1000 nM
IC50 (curve of first compound, second compound 0.01 µM): > 1000 nM
IC50 [1]: > 1000 nM
IC50 [2]: > 1000 nM
IC50 [3]: > 1000 nM
IC50 [4]: > 1000 nM
SMILES: CCN1CCN(Cc2ccc(Nc3ncc(F)c(-c4cc(F)c5nc(C)n(C(C)C)c5c4)n3)nc2)CC1 + COc1c(OCCCN2CCOCC2)ccc2c3n(c(=NC(=O)c4cnc(N)nc4)nc12)CCN3
viability, T/C (second compound 0.00316 µM, first compound 0.00316 µM): 94.1%
viability, T/C (second compound 0.00316 µM, first compound 0.01 µM): 90.4%
viability, T/C (second compound 0.00316 µM, first compound 0.0316 µM): 107%
viability, T/C (second compound 0.00316 µM, first compound 0.1 µM): 76.5%
viability, T/C (second compound 0.00316 µM, first compound 0.316 µM): 89.4%
viability, T/C (second compound 0.00316 µM, first compound 1 µM): 106%
viability, T/C (second compound 0.01 µM, first compound 0.00316 µM): 120%
viability, T/C (second compound 0.01 µM, first compound 0.01 µM): 73.7%
viability, T/C (second compound 0.01 µM, first compound 0.0316 µM): 78.7%
viability, T/C (second compound 0.01 µM, first compound 0.1 µM): 75.9%
viability, T/C (second compound 0.01 µM, first compound 0.316 µM): 81.7%
viability, T/C (second compound 0.01 µM, first compound 1 µM): 94.6%
viability, T/C [7]: 91.8%
viability, T/C [8]: 99.1%
viability, T/C [9]: 75.3%
viability, T/C [10]: 66.9%
viability, T/C (second compound 0.0316 µM, first compound 0.316 µM): 80.5%
viability, T/C (second compound 0.0316 µM, first compound 1 µM): 89.9%
viability, T/C [11]: 81.1%
viability, T/C [12]: 63.4%
viability, T/C [13]: 64.6%
viability, T/C [14]: 54.2%
viability, T/C (second compound 0.1 µM, first compound 0.316 µM): 68.2%
viability, T/C (second compound 0.1 µM, first compound 1 µM): 83.8%
viability, T/C [15]: 69.1%
viability, T/C [16]: 57.6%
viability, T/C [17]: 58.9%
viability, T/C [18]: 58.9%
viability, T/C (second compound 0.316 µM, first compound 0.316 µM): 69.4%
viability, T/C (second compound 0.316 µM, first compound 1 µM): 91.8%
viability, T/C [19]: 64.2%
viability, T/C [20]: 56.9%
viability, T/C [21]: 61.4%
viability, T/C [22]: 62.9%
viability, T/C (second compound 1 µM, first compound 0.316 µM): 72.9%
viability, T/C (second compound 1 µM, first compound 1 µM): 88%
